{"source": "paper PMC12350126", "about": "“A novel carboxamide bromodomain inhibitor attenuates osteoarthritis via epigenetic repression of NF-κB and MAPK signaling” (Frontiers in Immunology, 2025)", "key": {"[1]": {"target": "T1, BRD3 (BD1 + BD2) (Homo sapiens, UniProt Q15059)", "T1 construct": "BRD3 (BD1 + BD2); purchased BPS Bioscience", "T1 sequence (Q15059 29-417 limits assumed)": "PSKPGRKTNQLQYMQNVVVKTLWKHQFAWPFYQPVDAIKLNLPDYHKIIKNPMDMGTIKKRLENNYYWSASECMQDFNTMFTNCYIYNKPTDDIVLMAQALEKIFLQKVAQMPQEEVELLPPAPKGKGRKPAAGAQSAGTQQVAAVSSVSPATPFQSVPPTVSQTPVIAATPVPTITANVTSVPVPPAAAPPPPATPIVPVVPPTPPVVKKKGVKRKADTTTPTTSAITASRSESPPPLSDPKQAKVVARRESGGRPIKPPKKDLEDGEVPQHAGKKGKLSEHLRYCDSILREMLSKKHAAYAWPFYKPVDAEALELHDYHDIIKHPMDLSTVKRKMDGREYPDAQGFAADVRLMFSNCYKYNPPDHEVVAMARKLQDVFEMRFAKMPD", "test": "TR-FRET assay, BRD3 (BD1 + BD2)", "conditions": "lower signal = stronger binding", "procedure": "TR-FRET assays were conducted using kits specific for BRD2 (BD1 + BD2), BRD3 (BD1 + BD2), and BRD4 (BD1 + BD2) obtained from BPS Bioscience (San Diego, CA, USA). Bromodomain ligands were diluted in water, and master mixes were prepared by combining the diluted ligands with 1× BRD Homogeneous Assay Buffer. Thawed BRD proteins were also diluted with the same buffer. For each assay, 1.5 μL of the master mix was dispensed into wells of a microplate (Labcyte, San Jose, CA, USA), followed by the addition of 5 μL of diluted BRD protein to initiate the reaction. Plates were incubated at 20–22°C for 30–60 min. Subsequently, glutathione (GSH) acceptor beads and streptavidin-conjugated donor beads (both from PerkinElmer, Waltham, MA, USA) were diluted in 1× BRD Homogeneous Detection Buffer 1. Next, 10 μL of the acceptor bead solution was added to each well and incubated at 18°C for 30 min, followed by the addition of 10 μL of donor bead solution and a further incubation at 18°C for 15–30 min. Alpha particle counts were measured using an EnVision 2105 multimode plate reader (PerkinElmer)."}, "[2]": {"tested_on": "DMM-induced OA in C57BL/6J mice", "test": "DMM-induced OA mouse model, oral administration", "assay_type": "in vivo", "procedure": "All experiments were independently performed with at least three biological replicates to ensure reproducibility. For in vivo studies, animals were randomly assigned to treatment or control groups. To create a DMM-induced OA model, DMM surgery was performed on 12-week-old male C57BL/6J mice, following a previously reported protocol ([26]). Subsequently, NCD was either orally administered or injected in mice; the NCD (50 mg/kg) was orally administered on alternate days 4 weeks after DMM, whereas IA knee injection of NCD (10 μg) was administered once a week after 4 weeks. The mouse knee joint was processed for histological analysis 10 weeks after surgery. All experiments were independently performed with at least three biological replicates to ensure reproducibility. For in vivo studies, animals were randomly assigned to treatment or control groups. For in vitro experiments, cells were plated using a randomized layout across multi-well plates to avoid positional effects and ensure unbiased treatment assignment\nAll histological samples were prepared independently by two researchers. Cartilage destruction was evaluated based on Safranin O staining and scored using the OA Research Association International (OARSI) grading system ([29]). Additionally, all histological samples were analyzed through osteophyte maturity scoring and subchondral bone plate (SBP) thickness. Osteophyte maturity was scored as described previously ([30]). Briefly, the scoring was as follows: 0 = none, 1 = predominantly cartilaginous, 2 = mixed cartilage and bone with active vascular invasion and endochondral ossification, 3 = predominantly bone. SBP thickness was measured to analyze subchondral bone sclerosis. All experiments were independently performed over at least three replicates. […] For each sample, measurements were performed on serial sections, and the mean value was calculated for analysis. The samples were […] by treating with 0.5 M ethylenediamine tetraacetic acid (pH 8.0) for 2 weeks. Next, mouse knee joint samples were fixed using 4% paraformaldehyde and embedded in paraffin. The paraffin-embedded samples were cut into 5-μm sections and fixed on glass slides. The tissue sections were then hydrated using a graded ethanol series, which removed paraffin and xylene. Mouse knee joint sections were immunohistochemically analyzed using anti-Mmp3 (ab52915, Abcam, Cambridge, UK), anti-Mmp13 (ab51072, Abcam), and anti-Cox2 (66351-I-Ig, ProteinTech, Rosemont, ILllinois, USA)."}, "[3]": {"target": "T2, BRD2 BD2 (Homo sapiens, UniProt P25440)", "T2 construct": "biotinylated BRD2 BD1, BRD2 BD2; biotin (biotinylated protein); made in house; host or cells: Escherichia coli BL21(DE3)", "T2 sequence (P25440 344-453 limits assumed)": "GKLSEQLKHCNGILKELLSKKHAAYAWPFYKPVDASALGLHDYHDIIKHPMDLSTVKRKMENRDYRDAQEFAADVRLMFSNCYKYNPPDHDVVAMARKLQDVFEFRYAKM", "test": "Biosensor binding kinetics assay (Octet), BRD2 BD2", "procedure": "Binding kinetics were assessed using the Octet® R2 system (Sartorius, Göttingen, Germany). Superstreptavidin biosensors were loaded with biotinylated BRD2 BD1, BRD2 BD2, BRD3 BD1, BRD3 BD2, BRD4 BD1, BRD4 BD2, or biotin alone (as a negative control) in PBST buffer (phosphate-buffered saline containing 0.02% Tween 20 and 5% DMSO). The sensors were then dipped into compound solutions for 10 min. To evaluate association kinetics (kon), each sensor was exposed to serial dilutions of the protein for 180 s, followed by dipping them into PBST buffer to assess dissociation kinetics (koff). For control, a separate sensor loaded with the compound was dipped into PBST alone. Competition binding assays were performed by exposing the compound-loaded sensor to mixtures of proteins and test compounds."}, "[4]": {"conditions": "oral 50 mg/kg on alternate days from 4 weeks after DMM, 10 weeks after surgery, vs vehicle"}}, "note": "pKd: −log10 of the molar value.", "data": [{"smiles": "CNC(=O)CC1C(=O)NCCN1Cc1ccc(-c2ccccc2-c2cccc3c2CN(C)C3=O)o1", "note": "(centres unmarked) [NCD, N-methyl-2-(1-((5-(2-(2-methyl-1-oxoisoindolin-4-yl)phenyl)furan-2-yl)methyl)-3-oxopiperazin-2-yl)acetamide]", "values": [{"measurement": "TR-FRET value", "setting": "[1]", "value": "> 100000", "unit": "RLU"}, {"measurement": "OARSI score", "setting": "[2]; [4]", "value": "decrease"}, {"measurement": "Osteophyte maturity", "setting": "[2]; [4]", "value": "decrease"}, {"measurement": "SBP thickness", "setting": "[2]; [4]", "value": "decrease"}, {"measurement": "Expression of Mmp3, Mmp13 and Cox2 in articular cartilage (immunohistochemistry)", "setting": "[2]; oral 50 mg/kg, DMM mice", "value": "markedly reduced expression levels"}, {"measurement": "NITEGE levels (aggrecan degradation neoepitope)", "setting": "[2]; oral 50 mg/kg, DMM mice", "value": "significantly reduced"}, {"measurement": "Type II collagen (immunohistochemistry)", "setting": "[2]; oral 50 mg/kg, DMM mice", "value": "restored"}, {"measurement": "pKd", "setting": "[3]", "value": 6.98}]}]}
